# In patent US8846873B2, “Antibodies directed to GPNMB and uses thereof” (Celldex Therapeutics, Inc., priority 2004, dated 2014):
# Experiments:
# A2058 = test: Clonogenic assay with 1.15.1-AE; type: cell-based, human
# Experimental: (§1) Melanoma cell lines were plated onto flat bottom 96-well tissue culture plates (Becton Dickinson, Franklin Lakes, N.J., USA). On day 2 or when cells reach ˜25% confluency, various concentrations of unconjugated and Auristatin E-conjugated 1.15.1 were added to cells. MAb 2.6.2-AE was also used as a conjugated isotype control in this study. On day 5, the cells were trypsinized, transferred to 6-well tissue culture plates and incubated at 37° C. Plates were examined daily. On days 8-10, all plates were Giemsa stained and colonies on the plates were counted.
# G361 = test: Clonogenic assay with 1.15.1-AE; type: cell-based, human
# Experimental: as §1
# HEMNLP = test: Clonogenic assay with 1.15.1-AE; type: cell-based, human
# Experimental: as §1
# HT144 = test: Clonogenic assay with 1.15.1-AE; type: cell-based, human
# Experimental: as §1
# LOXIMVI = test: Clonogenic assay with 1.15.1-AE; type: cell-based, human
# Experimental: as §1
# M14 = test: Clonogenic assay with 1.15.1-AE; type: cell-based, human
# Experimental: as §1
# MEWO = test: Clonogenic assay with 1.15.1-AE; type: cell-based, human
# Experimental: as §1
# RPMI-7951 = test: Clonogenic assay with 1.15.1-AE; type: cell-based, human
# Experimental: as §1
# SK-Mel 2 = test: Clonogenic assay with 1.15.1-AE; type: cell-based, human
# Experimental: as §1
# SK-Mel 5 = test: Clonogenic assay with 1.15.1-AE; type: cell-based, human
# Experimental: as §1
# UACC-257 = test: Clonogenic assay with 1.15.1-AE; type: cell-based, human
# Experimental: as §1
# UACC-62 = test: Clonogenic assay with 1.15.1-AE; type: cell-based, human
# Experimental: as §1
# WM-266-4 = test: Clonogenic assay with 1.15.1-AE; type: cell-based, human
# Experimental: as §1
# [1] = test system: SK-MEL-5 melanoma xenografts; test: Human SK-MEL-5 melanoma xenograft in athymic mice; type: in vivo
# Experimental: Test Animals: Five- to 6-week old athymic mice (CD-1 nu/nu females), used for human tumor xenografts, were obtained from Harlan Laboratories (Indianapolis, Ind.). Animals were housed in specific pathogen-free conditions, according to the guidelines of the Association for Assessment and Accreditation of Laboratory Animal Care International (AAALAC International). Test animals were provided pelleted food and water ad libitum and kept in a room with conditioned ventilation (HVAC), temperature (22°±2° C.), relative humidity (55%±15%), and photoperiod (12 hr). All studies were carried out with approved institutional animal care and use protocols.
# Human Melanoma Xenograft Models. The tumor inhibitory activity of the CR011-MMAE immunoconjugate was measured in an anti-tumor xenograft model using athymic mice, according to published methods (see Geran et al., Cancer Chemother. Rep. 3:1-104 (1972)). […] When tumors became established (10-20 days), the animals were pair-matched into groups (n=6 mice/group), and treatment was administered by intravenous injection (tail vein).
# The SK-MEL-2 human melanoma (ATCC #HTB-68) was derived from a metastatic site (skin of thigh) of a person with malignant melanoma, and the SK-MEL-5 human melanoma (ATCC #HTB-70) was derived from a metastatic site (axillary lymph node) of a person with malignant melanoma (see Fogh et al., J. Natl. Cancer Inst. 59: 221-226 (1977)). Both cell lines were obtained from the American Type Culture Collection.
# The effects of treatment were monitored by repetitive tumor measurements across 2 diameters with Vernier calipers; tumor size (in mg) was calculated using a standard formula, (W^2×L)/2, assuming a specific gravity of 1.0. Tumor size and body weights were assessed twice weekly. Mice were examined daily, however, and moribund animals were humanely euthanized if clinical indications of excessive pain or distress were noted (i.e., prostration, hunched posture, paralysis/paresis, distended abdomen, ulcerations, abscesses, seizures, and/or hemorrhages). Animals with tumors exceeding 2,000 mg were removed from the study and euthanized humanely.
# Soon after the commencement of treatment with paclitaxel, however, significant tumor growth inhibition was observed (P≦0.039) at day 3 after treatment began, and this anti-tumor effect continued, producing 100% growth inhibition (stasis). The responses of SK-MEL-5-bearing test animals to vinblastine and paclitaxel were short-lived. After cessation of treatment at the maximally tolerated doses, tumors resumed rapid, progressive growth.
# HEK293 cells = test: Clonogenic assay, empty vector or GPNMB transfected cells; type: cell-based, human; conditions: 96 hours treatment
# Experimental: HEK293 cells are transfected with empty vector (vector) or GPNMB-containing plasmid (GPNMB) as described in Materials and Methods. A. Cell lysates are prepared from the transfected HEK293 cells and the expression of GPNMB (upper panel) or actin (lower panel) is determined by immunoblotting. Lane 1: Empty vector transfectants. Lane 2: GPNMB transfectants. B. Flow cytometry analysis of GPNMB expression on empty vector or GPNMB transfected cells. C. […] After a clonogenic assay, the surviving fraction is normalized to the untreated control and expressed as a percentage of the control using GraphPad Prism graphing software. Each treatment is performed in triplicate. A representative graph from two independent experiments is shown.
# Cells were plated in 96-well plates and allowed to recover overnight. […] The cells were then transferred into 6-well plates and allowed to form colonies. Colonies were stained with Giemsa stain (Sigma) and counted. The surviving cell fractions were calculated based upon the ratio of the treated sample and the untreated control. The results were expressed as a percentage of control using GraphPad Prism Version 4 software.
substance,measurement,setting,value
CR011-vcMMAE: anti-GPNMB antibody 1.15.1 coupled to monomethylauristatin E via protease-sensitive valine-citrulline linker,Clonogenic Assay with 1.15.1-AE IC50,A2058,No effect
same,Clonogenic Assay with 1.15.1-AE IC50,G361,1.053 µg/mL
same,IC50,G361,6.5 nM
same,Clonogenic Assay with 1.15.1-AE IC50,HEMNLP,Inconclusive
same,Clonogenic Assay with 1.15.1-AE IC50,HT144,Inconclusive
same,Clonogenic Assay with 1.15.1-AE IC50,LOXIMVI,No effect
same,Clonogenic Assay with 1.15.1-AE IC50,M14,Inconclusive
same,Clonogenic Assay with 1.15.1-AE IC50,MEWO,Inconclusive
same,Clonogenic Assay with 1.15.1-AE IC50,RPMI-7951,0.972 µg/mL
same,IC50,RPMI-7951,6 nM
same,Clonogenic Assay with 1.15.1-AE IC50,SK-Mel 2,0.111 µg/mL
same,IC50,SK-Mel 2,0.75 nM
same,Clonogenic Assay with 1.15.1-AE IC50,SK-Mel 5,0.237 µg/mL
same,IC50,SK-Mel 5,1.6 nM
same,Clonogenic Assay with 1.15.1-AE IC50,UACC-257,0.825 µg/mL
same,IC50,UACC-257,5.5 nM
same,Clonogenic Assay with 1.15.1-AE IC50,UACC-62,0.697 µg/mL
same,IC50,UACC-62,4.3 nM
same,Clonogenic Assay with 1.15.1-AE IC50,WM-266-4,0.345 µg/mL
same,IC50,WM-266-4,2.3 nM
same,complete regressions,[1]; 2.5 mg/kg/treatment,Complete regressions occurred
same,time after treatment began to significant anti-tumor effects,"[1]; 10 mg/kg/treatment, compared to PBS-treated controls",10 days
same,time after treatments began to significant anti-tumor effects,"[1]; 10 mg/kg/treatment, compared to saline",7 days
same,anti-tumor effect,"[1]; CR011-ONC-3, i.v., vs saline and PBS control groups","Substantial tumor growth inhibition, as well as tumor growth delay and complete regressions"
same,doses at which complete regressions occurred,"[1]; i.v., q4d x4",> 2.5 mg/kg
same,"toxicity (mortality, body weight or weight gain)",[1]; treated tumor-bearing animals,no indication of toxicity
same,"sensitivity to growth-inhibition, GPNMB-expressing vs control HEK293 cells",HEK293 cells,more sensitive
